pIC50: −log10 of the molar value.
How the values were obtained:
[1] = tested on: CaCl2-induced abdominal aortic aneurysm; assay: CaCl2-induced AAA animal efficacy model, mice; type: in vivo, 129SvEv mice; settings: 28 days, aortic lumenal perimeter
Excerpt: (§1) A targeted application of a calcium chloride solution to the mouse aorta induces vessel dilatation Chiou et al. J. Surg. Res. (2001), 99: 371-376; Lomgo et al. J. Clin. Invest. (2002), 110: 625-632. Two weeks after treatment, the vessel dilatation compared to the original vessel diameter becomes statistically significant, with up to 75% increase of aortic lumenal perimeter after 4 weeks. Calcium precipitates have been localized primarily within the elastic network of the media. Disruption of this structure by the calcium-elastic tissue complex weakens the vessel wall, contributing to aneurysm formation. This injury also serves as a proinflammatory stimulus, recruiting neutrophils, lymphocytes, monocytes, and mast cells.
Mice: 129SvEv males, 7 weeks of age, are acquired from Taconic Farms, Germantown, N.Y., USA.
Aneurysm Induction Model: All procedures are performed in accordance with Eli Lilly and Company Institutional Animal Care and Use guidelines. Upon their arrival, animals have a one week acclimation period during which they have ad libitum access to standard rodent chow (Purina #2014) and house water. Following the acclimation period, animals are anesthetized with isoflurane, and a laparotomy is performed for the CaCl2-stimulated induction of the abdominal aortic aneurysm (AAA). […] Interior cross sectional lumenal perimeter measurements (mm) are collected at that point to assess efficacy and statistically analyzed with JMP® 7 software (Cary, N.C.). Statistical Analysis: Measurements of lumenal perimeter are expressed as mean values±SE. […]
The efficacy signal window in the CaCl2-induced abdominal aortic aneurysm model is determined by the lumenal perimeter of the aorta in mice treated with saline-soaked gauze followed by 4-weeks dosing with vehicle that determines 100% efficacy (“Sham Vehicle”) and the lumenal perimeter of the aorta in mice treated with CaCl2-soaked gauze followed by 4-weeks dosing with vehicle (“Vehicle”) that determines 0% efficacy.

[2] = tested on: CaCl2-induced abdominal aortic aneurysm; assay: CaCl2-induced AAA animal efficacy model, rats; type: in vivo, Sprague-Dawley rats; settings: 28 days, aortic lumenal perimeter
Excerpt: as §1
Rats: Sprague-Dawley rats, 7-8 weeks of age, are acquired from Harlan, Indianapolis, Ind., USA
Aneurysm Induction Model: All procedures are performed in accordance with Eli Lilly and Company Institutional Animal Care and Use guidelines. Upon their arrival, animals have a one week acclimation period during which they have ad libitum access to standard rodent chow (Purina #2014) and house water. Following the acclimation period, animals are anesthetized with isoflurane, and a laparotomy is performed for the CaCl2-stimulated induction of the abdominal aortic aneurysm (AAA). […] Once isolated, the region of interest (ROI) of the abdominal aorta is wrapped with sterile, cotton gauze presoaked in a 0.25 M CaCl2 solution. In sham control animals, 0.9% saline is substituted for CaCl2. After 7 min, the gauze is removed and a second CaCl2 soaked gauze reapplied. Following the second 7 min period, the gauze is removed, the aorta rinsed with 0.9% saline and the abdomen closed Animals are returned to general housing at the end of their surgical day. Compound Administration: Mice receive test compound (Example 2) by oral gavage at a dose volume of 10 mL/kg of body weight, and rats receive test compound (Example 2) by oral gavage at a dose volume of 2.5 mL/kg of body weight. Compound administration is BID (a.m. and p.m.) with the first dose given one day prior to surgery (p.m.) and the second dose given the morning of surgery. […] The day after surgery, dosing continues BID for 28 days. […] Interior cross sectional lumenal perimeter measurements (mm) are collected at that point to assess efficacy and statistically analyzed with JMP® 7 software (Cary, N.C.). Statistical Analysis: Measurements of lumenal perimeter are expressed as mean values±SE. […]
In a similar study design, the ability of the compound of Example 2 to modulate aortic aneurysm dilation following CaCl2-induced injury is evaluated in Sprague-Dawley rats.

[3] = Exposure (AUC) in the LDLr KO mouse atherosclerosis study; settings: male, LDLr KO (JAX #002207), in vivo, LDLr KO mice
Excerpt: LDLr KO mice (JAX #002207), 7 week old males, were obtained from The Jackson Laboratory (Bar Harbor, Me.). Upon arrival at the testing facility and continuing for a total of 10 weeks, mice were housed individually and fed the atherogenic diet TD.88137 (Teklad) ad libitum. During the first 6 weeks, the mice rested undisturbed in their cages. During the last 4 weeks, the mice received the test compound twice daily by oral gavage.

[4] = tested on: LTB4-induced CD11b expression in neutrophils; assay: CD11b assay, mouse whole blood; type: cell-based; settings: Neutrophil, 25 nM LTB4
Method: (§2) EDTA anti-coagulated blood is collected from human donors or mice as before. For in vitro experiments, 8 or 10 point dose response curves of test compounds are assayed at final concentrations of 78 nM-10 μM or 20 nM-10 μM respectively. ½ serial dilutions of compound at 1000× of final assayed concentration are prepared in DMSO. Compound is then diluted to 10× in DPBS (DMSO concentration is now 1%). 10 μL of compound dilutions (at 10× in DPBS) or 1% DMSO in DPBS are added to wells of a 96 deep well plate. 90 μL whole blood is added and incubated 20 min at room temperature. 11 μL of 10×LTB4 (final concentration 25 nM for mouse or 10 nM human) is added and incubated at 37° C. for 30 min. The reaction is stopped by incubating the plate on ice for 5 min. The cells are stained with 10 μL anti-mouse or anti-human CD11b-PE (BD Biosciences diluted 1:20 for mouse and undiluted for human) and incubated on ice for 30 min in the dark (for mouse experiments, 10 μL anti-mouse LY6G-FITC antibody (BD Pharmingen) diluted 1:25 is added for the final 10 min) Red blood cells (RBCs) are lysed by adding 1.5 mL of 1×BD FACSlyse (BD Biosciences) and incubating for 10 min at room temperature in the dark. […] Data are analyzed with WinList software (Verity Software House) to determine mean and median fluorescent intensity values for CD11b-PE from neutrophil population.

[5] = tested on: LTB4-induced CD11b expression in neutrophils; assay: CD11b assay, human whole blood; type: cell-based; settings: Neutrophil, 10 nM LTB4
Method: as §2

SMILES: CCCc1c(NC(=O)CC(C)(C)C(=O)[O-])cccc1OCCCOc1cc(O)c(-c2ccc(F)cc2)cc1CC.[Na+] [Example 2, Sodium 4-[[3-[3-[2-ethyl-4-(4-fluorophenyl)-5-hydroxy-phenoxy]propoxy]-2-propyl-phenyl]amino]-2,2-dimethyl-4-oxo-butanoate]
- % Reduced (±S.E.) of AAA ([1]; 10 mg/kg b.i.d. oral gavage): 41% ± 13
- % Reduced (±S.E.) of AAA ([1]; 30 mg/kg b.i.d. oral gavage): 48% ± 10
- % Reduced (±S.E.) of AAA ([1]; 60 mg/kg b.i.d. oral gavage): 58% ± 13
- % Reduced (±S.E.) of AAA ([2]; 3 mg/kg b.i.d. oral gavage): 46% ± 7
- % Reduced (±S.E.) of AAA ([2]; 10 mg/kg b.i.d. oral gavage): 69% ± 4
- % Reduced (±S.E.) of AAA ([2]; 30 mg/kg b.i.d. oral gavage): 85% ± 5
- % Reduced (±S.E.) of AAA ([2]; 60 mg/kg b.i.d. oral gavage): 69% ± 10
- AUC ([3]; 3 mg/kg BID oral gavage): 1110 ng·h/mL
- AUC ([3]; 10 mg/kg BID oral gavage): 5380 ng·h/mL
- AUC ([3]; 30 mg/kg BID oral gavage): 12800 ng·h/mL
- pIC50 [4]: 5.84
- pIC50 [5]: 6.71

— US9187411B2, “Leukotriene B4 antagonist compound” (Eli Lilly and Company, priority 2012, dated 2015)
